Measured values as given in PMC2818847 (PLoS ONE, 2010).

Molecular target: T1, Py235 (reticulocyte binding protein), nucleotide binding domain NBD94 (Plasmodium yoelii, UniProt Q7RPU0)
T1 construct: gene PY01365
Test: fluorescence correlation spectroscopy titration

Substance | Kd
EDA-ADP ATTO-647N | 331 ± 1.8 µM
EDA-ATP ATTO-647N | 228 ± 2.3 µM
